The target in assay [1] is T1, Laconic (LldR from Escherichia coli between mTFP and Venus) (Escherichia coli, UniProt P0ACL7).
T1 construct: variant 04
T1 sequence (P0ACL7 1-258): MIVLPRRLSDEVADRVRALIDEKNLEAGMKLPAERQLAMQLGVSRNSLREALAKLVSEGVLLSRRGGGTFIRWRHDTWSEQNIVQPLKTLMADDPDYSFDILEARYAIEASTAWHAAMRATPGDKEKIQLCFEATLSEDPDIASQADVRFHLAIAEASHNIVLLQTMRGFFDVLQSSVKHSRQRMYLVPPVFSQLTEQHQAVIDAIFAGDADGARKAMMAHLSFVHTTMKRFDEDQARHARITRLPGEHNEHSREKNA
The assay is described as follows: FRET ratio mTFP/Venus, purified sensor. It counts as binding. To be noted: 1 mM citrate without lactate; intracellular buffer pH 7.0.

The target in assay [2] is T1, Laconic (LldR from Escherichia coli between mTFP and Venus). Nature of the assay: FRET ratio mTFP/Venus, purified sensor. It counts as binding. Conditions: 0.25, 1 or 10 mM pyruvate with lactate dose-response; effect by interference with lactate; intracellular buffer pH 7.0.

As to `O=C(O)CC(O)(CC(=O)O)C(=O)O` [citrate], the “% increase of FRET ratio at 1 mM” value in assay [1] amounted to 6%.

As for `CC(=O)C(=O)O` [pyruvate], the “FRET ratio mTFP/Venus, purified sensor” value in assay [2] was “at high concentrations, pyruvate blocked the effect of low lactate”.

The values are drawn from article PMC3582500 (PLoS ONE, 2013).
